{
  "source": "patent US20070116781A1",
  "about": "“Hydrogen Cyanamide Pesticide Formulations” (priority 2005, published 2007)",
  "key": {"combined weed species": {"system": "combined weed species", "assay": "Herbicidal activity, cyanamide and citric acid, pre-emergence, covered pots", "format": "in vivo", "conditions": "C6H8O7 150 mg/kg soil", "description": "(§1) The weeds used in these tests were grown from a standard weed seed pack of common annual and perennial weeds representing an extreme weed situation. The weeds included crabgrass (Digitaria sanguinalis), yellow nutsedge (Cyperus esculentus), […] (Ipomoea spp.), pigweed (Amaranthus spp.), and other annual weeds. Observations of the effects on the weed population as a whole were made, and individual observations were made for crabgrass, yellow nutsedge, sicklepod, morningglory, and pigweed. Stock solutions of hydrogen cyanamide at 1.25% by weight and citric acid at 5.0% by weight, both in water, were prepared, the hydrogen cyanamide from a phosphate-buffered 50% aqueous solution. […] Data analyses were performed in the same manner as Example 1. The results expressed in weeds per pot are listed in Table XIV for all weeds, Table XV for crabgrass, Table XVI for yellow nutsedge, Table XVII for sicklepod, Table XVIII for morningglory, and Table XIX for pigweed, all at various application rates for hydrogen cyanamide, with and without citric acid."}, "crabgrass": {"system": "crabgrass", "assay": "Herbicidal activity, cyanamide and citric acid, pre-emergence, covered pots", "format": "in vivo, Digitaria sanguinalis", "conditions": "C6H8O7 150 mg/kg soil", "description": "as §1"}, "yellow nutsedge": {"system": "yellow nutsedge", "assay": "Herbicidal activity, cyanamide and citric acid, pre-emergence, covered pots", "format": "in vivo, Cyperus esculentus", "conditions": "C6H8O7 150 mg/kg soil", "description": "as §1"}, "sicklepod": {"system": "sicklepod", "assay": "Herbicidal activity, cyanamide and citric acid, pre-emergence, covered pots", "format": "in vivo, Senna obtusifolia", "conditions": "C6H8O7 150 mg/kg soil", "description": "as §1"}, "morningglory": {"system": "morningglory", "assay": "Herbicidal activity, cyanamide and citric acid, pre-emergence, covered pots", "format": "in vivo, Ipomoea spp.", "conditions": "C6H8O7 150 mg/kg soil", "description": "as §1"}, "weed combination": {"system": "weed combination", "assay": "Herbicidal activity of citric acid alone, pre-emergence, covered pots", "format": "in vivo", "description": "The weeds used in these tests were the same as those used in Example 4, and observations were made of the effects on individual weeds as well as the weed population as a whole.\nA stock solution of citric acid was made in the manner described in Example 4, and all other test parameters were likewise the same as in Example 4. Weed counts were taken from the various pots at intervals of 7, 12, and 28 days after application of the citric acid, and data analyses were performed in the same manner as Example 1."}},
  "data": [
    {"compound": "O=C(O)CC(O)(CC(=O)O)C(=O)O", "note": "[C6H8O7, 2-hydroxy-1,2,3-propanetricarboxylic acid]", "values": [
      {"measurement": "Weeds Per Pot (combined weed species)", "setting": "combined weed species; 9 d after treatment", "result": 10.6},
      {"measurement": "Weeds Per Pot (combined weed species)", "setting": "combined weed species; 13 d after treatment", "result": 15.0},
      {"measurement": "Weeds Per Pot (combined weed species)", "setting": "combined weed species; 19 d after treatment", "result": 16.5},
      {"measurement": "Weeds Per Pot (combined weed species)", "setting": "combined weed species; 26 d after treatment", "result": 16.0},
      {"measurement": "Weeds Per Pot: Crabgrass", "setting": "crabgrass; 9 d after treatment", "result": 4.6},
      {"measurement": "Weeds Per Pot: Crabgrass", "setting": "crabgrass; 13 d after treatment", "result": 8.6},
      {"measurement": "Weeds Per Pot: Crabgrass", "setting": "crabgrass; 19 d after treatment", "result": 9.3},
      {"measurement": "Weeds Per Pot: Crabgrass", "setting": "crabgrass; 26 d after treatment", "result": 8.1},
      {"measurement": "Weeds Per Pot: Yellow Nutsedge", "setting": "yellow nutsedge; 13 d after treatment", "result": 0.7},
      {"measurement": "Weeds Per Pot: Yellow Nutsedge", "setting": "yellow nutsedge; 19 d after treatment", "result": 0.9},
      {"measurement": "Weeds Per Pot: Yellow Nutsedge", "setting": "yellow nutsedge; 26 d after treatment", "result": 0.9},
      {"measurement": "Weeds Per Pot: Sicklepod", "setting": "sicklepod; 13 d after treatment", "result": 4.6},
      {"measurement": "Weeds Per Pot: Sicklepod", "setting": "sicklepod; 19 d after treatment", "result": 5.6},
      {"measurement": "Weeds Per Pot: Sicklepod", "setting": "sicklepod; 26 d after treatment", "result": 5.3},
      {"measurement": "Weeds Per Pot: Morningglory", "setting": "morningglory; 13 d after treatment", "result": 1.1},
      {"measurement": "Weeds Per Pot: Morningglory", "setting": "morningglory; 19 d after treatment", "result": 0.9},
      {"measurement": "Weeds Per Pot: Morningglory", "setting": "morningglory; 26 d after treatment", "result": 5.3},
      {"measurement": "Weeds Per Pot (weed combination)", "setting": "weed combination; 7 d after treatment, citric acid 50 mg/kg soil", "result": 16.6},
      {"measurement": "Weeds Per Pot (weed combination)", "setting": "weed combination; 7 d after treatment, citric acid 100 mg/kg soil", "result": 11.1},
      {"measurement": "Weeds Per Pot (weed combination)", "setting": "weed combination; 7 d after treatment, citric acid 150 mg/kg soil", "result": 14.0},
      {"measurement": "Weeds Per Pot (weed combination)", "setting": "weed combination; 7 d after treatment, citric acid 200 mg/kg soil", "result": 12.2},
      {"measurement": "Weeds Per Pot (weed combination)", "setting": "weed combination; 7 d after treatment, citric acid 250 mg/kg soil", "result": 11.5},
      {"measurement": "Weeds Per Pot (weed combination)", "setting": "weed combination; 12 d after treatment, citric acid 50 mg/kg soil", "result": 29.8},
      {"measurement": "Weeds Per Pot (weed combination)", "setting": "weed combination; 12 d after treatment, citric acid 100 mg/kg soil", "result": 25.5},
      {"measurement": "Weeds Per Pot (weed combination)", "setting": "weed combination; 12 d after treatment, citric acid 200 mg/kg soil", "result": 20.6},
      {"measurement": "Weeds Per Pot (weed combination)", "setting": "weed combination; 28 d after treatment, citric acid 50 mg/kg soil", "result": 28.0},
      {"measurement": "Herbicidal activity of citric acid", "setting": "weed combination; pre-emergence, covered pots", "result": "negligible except at extremely high application rates"}
    ]}
  ]
}
